Earlier results, collected in patent publication US7550154B2, “Methods of treatment with drug loaded polymeric materials” (Yale University, priority 2004, dated 2009).

- solubility in aqueous environments: limited solubility
SMILES: COc1cccc2c1C(=O)c1c(O)c3c(c(O)c1C2=O)C[C@@](O)(C(=O)CO)C[C@@H]3O[C@H]1C[C@H](N)[C@H](O)[C@H](C)O1 [Dox, doxorubicin]
